The structures appear in SMILES notation.

The target of this test is Multidrug resistance associated protein (Homo sapiens) (UniProt Q96QA9). As to the kind of experiment: TP_TRANSPORTER: uptake in membrane vesicles from HEK293T cells. The format is functional, cell membranes. The settings on record: HEK293; Membrane vesicle.
Sequence of Multidrug resistance associated protein (Homo sapiens) (Q96QA9 as listed by the source): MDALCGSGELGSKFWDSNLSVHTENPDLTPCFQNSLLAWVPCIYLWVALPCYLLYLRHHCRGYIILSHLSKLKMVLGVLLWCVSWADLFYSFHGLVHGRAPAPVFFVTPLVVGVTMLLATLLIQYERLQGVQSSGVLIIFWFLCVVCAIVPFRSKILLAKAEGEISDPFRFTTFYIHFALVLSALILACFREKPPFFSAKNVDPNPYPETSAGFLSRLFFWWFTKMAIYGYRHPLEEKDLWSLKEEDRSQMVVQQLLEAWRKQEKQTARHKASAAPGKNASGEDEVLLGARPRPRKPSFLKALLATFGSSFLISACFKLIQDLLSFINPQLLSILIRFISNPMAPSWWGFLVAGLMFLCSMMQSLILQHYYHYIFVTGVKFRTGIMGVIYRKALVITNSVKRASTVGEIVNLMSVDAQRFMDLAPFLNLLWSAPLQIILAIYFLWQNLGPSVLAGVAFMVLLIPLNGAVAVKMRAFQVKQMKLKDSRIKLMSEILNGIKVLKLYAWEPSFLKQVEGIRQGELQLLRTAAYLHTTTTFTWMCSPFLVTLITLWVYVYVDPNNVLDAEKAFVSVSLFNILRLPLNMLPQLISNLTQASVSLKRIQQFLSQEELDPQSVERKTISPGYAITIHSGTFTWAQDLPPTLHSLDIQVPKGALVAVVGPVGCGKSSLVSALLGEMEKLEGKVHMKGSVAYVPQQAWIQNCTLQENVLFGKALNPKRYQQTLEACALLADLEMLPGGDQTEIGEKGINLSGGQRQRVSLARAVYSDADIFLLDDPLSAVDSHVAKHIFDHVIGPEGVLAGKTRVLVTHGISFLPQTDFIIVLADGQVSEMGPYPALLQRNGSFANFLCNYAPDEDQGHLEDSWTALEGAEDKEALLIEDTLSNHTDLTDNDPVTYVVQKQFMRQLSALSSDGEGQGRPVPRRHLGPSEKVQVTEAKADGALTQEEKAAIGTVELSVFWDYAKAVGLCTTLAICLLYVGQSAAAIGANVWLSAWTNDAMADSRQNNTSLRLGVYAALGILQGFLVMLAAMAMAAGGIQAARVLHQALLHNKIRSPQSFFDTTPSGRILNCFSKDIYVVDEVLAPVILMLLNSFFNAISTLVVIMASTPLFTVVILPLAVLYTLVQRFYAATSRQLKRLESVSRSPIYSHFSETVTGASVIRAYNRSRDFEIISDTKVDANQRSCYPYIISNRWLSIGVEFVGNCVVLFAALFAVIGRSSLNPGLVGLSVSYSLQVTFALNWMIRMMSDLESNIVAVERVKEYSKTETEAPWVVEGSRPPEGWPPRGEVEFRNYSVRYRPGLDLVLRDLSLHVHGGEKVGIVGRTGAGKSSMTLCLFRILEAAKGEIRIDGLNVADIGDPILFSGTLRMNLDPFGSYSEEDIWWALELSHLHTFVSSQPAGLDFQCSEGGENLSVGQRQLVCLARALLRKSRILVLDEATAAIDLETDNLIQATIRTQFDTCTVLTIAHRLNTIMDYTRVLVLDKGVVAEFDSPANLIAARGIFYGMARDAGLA

Turning to `CCCCC/C=C\C\C=C/C=C/C=C/[C@@H](SC[C@@H](NC(=O)CC[C@H](N)C(=O)O)C(=O)NCC(=O)O)[C@@H](O)CCCC(=O)O`, the Activity result is “substrate [+]”.

Take `CN(Cc1cnc2nc(N)nc(N)c2n1)c1ccc(C(=O)N[C@@H](CCC(=O)O)C(=O)O)cc1`: the Activity entry was “substrate [+]”.

The values above are taken from ChEMBL document CHEMBL2073892, “Substitution of Trp1242 of TM17 alters substrate specificity of human multidrug resistance protein 3” (Am J Physiol Gastrointest Liver Physiol, 2003).
